Earlier results in PubChem BioAssay AID1259410 (Chemical Carcinogenesis Research Information System (CCRIS), 2018).

System: rodent tumor promotion studies, tumor incidence
Assay: CCRIS tumor promotion studies
[1] = Carcinogen: 7,12-DIMETHYLBENZ(A)ANTHRACENE, Doses [Carcinogen]: TOP, Route [Carcinogen]: DERMAL, Route [Promoter]: DERMAL, Species: MOUSE, Strain/Sex: FEMALE
[2] = Carcinogen: 7,12-DIMETHYLBENZ(A)ANTHRACENE, Doses [Carcinogen]: TOP, Route [Carcinogen]: DERMAL, Route [Promoter]: DERMAL, Species: MOUSE, Strain/Sex: MALE,FEMALE

SMILES: CC(=O)Nc1ccc2c(c1)C(O)c1ccccc1-2 (stereo not given)
- outcome (Carcinogen: DIETHYLNITROSAMINE, 55-18-5, Doses [Carcinogen]: 200 MG/KG BW IN 0.9% SALINE ONCE, Doses [Promoter]: 0, 0.1 MMOL/KG BW IN POLYETHYLENE GLYCOL FOR 5 D BEGINNING 1 WK POST CARCINOGEN DOSE, 70% HEPATECTOMY PERFORMED 3 D AFTE, Route [Carcinogen]: INTRAPERITONEAL, Route [Promoter]: GAVAGE, Species: RAT, Strain/Sex: SPRAGUE-DAWLEY/MALE): liver: hepatocellular carcinoma

SMILES: CN(C)CCCN1c2ccccc2Sc2ccc(Cl)cc21
- outcome (Carcinogen: UV IRRADIATION, Doses [Carcinogen]: 0.53 J/CM2 INCREASED BY 20% EVERY 2 WK TO 1.60 J/CM2 AND MAINTAINED AT 1.60 J/CM2 UNTIL DEATH, ADMINISTERED 5 D/WK FOR 1, Doses [Promoter]: 0, 15 UG/G BEGINNING 2 WK POST FIRST CARCINOGEN DOSE ADMINISTERED 2 HR PRIOR TO EACH CARCINOGEN DOSE (STUDY DURATION: 30, Route [Carcinogen]: DERMAL, Route [Promoter]: INTRAPERITONEAL, Species: MOUSE, Strain/Sex: SKH/HRL/FEMALE): skin: tumor

SMILES: Cc1ccc(O)c(C(C)(C)C)c1
- outcome (Carcinogen: N-BUTYL-N-(4-HYDROXYBUTYL)NITROSAMINE, 3817-11-6, Doses [Carcinogen]: 0.5% IN DRINKING WATER FOR 4 WK, Doses [Promoter]: 0, 1% IN DIET FOR 32 WK BEGINNING 3 D POST CARCINOGEN TREATMENT (STUDY DURATION: 36 WK), Route [Carcinogen]: ORAL, Route [Promoter]: ORAL, Species: RAT, Strain/Sex: F344/MALE): bladder: carcinoma, papilloma

SMILES: O=S1(=O)N=C(O)c2ccccc21
- outcome (Carcinogen: N-[4-(5-NITRO-2-FURYL)-2-THIAZOLYL]FORMAMIDE, 24554-26-5, Doses [Carcinogen]: 0.2% IN DIET FOR 6 WK, Doses [Promoter]: 0, 3.12% IN PROLAB DIET FOR 72 WK BEGINNING POST CARCINOGEN TREATMENT (STUDY DURATION: 78 WK), Route [Carcinogen]: ORAL, Route [Promoter]: ORAL, Species: RAT, Strain/Sex: F344/MALE): urinary bladder: carcinoma
- outcome (Carcinogen: N-[4-(5-NITRO-2-FURYL)-2-THIAZOLYL]FORMAMIDE, 24554-26-5, Doses [Carcinogen]: 0.2% IN DIET FOR 6 WK, Doses [Promoter]: 0, 5.2% IN PROLAB DIET FOR 72 WK BEGINNING POST CARCINOGEN TREATMENT (STUDY DURATION: 78 WK), Route [Carcinogen]: ORAL, Route [Promoter]: ORAL, Species: RAT, Strain/Sex: F344/MALE): urinary bladder: carcinoma, carcinoma or papilloma

SMILES: Oc1ccc2c(c1)CCCC2
- outcome [1]: integumentary system (skin)

SMILES: CCCCCCCCCCCC(=O)O
- outcome [2]: integumentary system (skin)

SMILES: Cc1cc(=O)n(-c2ccccc2)n1C
- outcome (Carcinogen: DIHYDROXY-DI-N-PROPYLNITROSAMINE, 53609-64-6, URACIL, 66-22-8, Carcinogen: DIHYDROXY-DI-N-PROPYLNITROSAMINE, 53609-64-6, URACIL, 66-22-8, Doses [Carcinogen]: 1% DHPN IN DRINKING WATER AND 3% URACIL IN DIET FOR 4 WK, Doses [Promoter]: 0, 1% IN DIET BEGINNING 1 WK POST CARCINOGEN TREATMENT AND CONTINUING FOR 35 WK (STUDY DURATION: 40 WK), Route [Carcinogen]: ORAL, ORAL, Route [Promoter]: ORAL, Species: RAT, Strain/Sex: F344/MALE): kidney: adenoma or adenocarcinoma

SMILES: CC1(OO)C=C(C(C)(C)C)C(=O)C(C(C)(C)C)=C1
- outcome (Carcinogen: 7,12-DIMETHYLBENZ[A]ANTHRACENE, 57-97-6, Doses [Carcinogen]: 20 NMOL IN 200 µL ACETONE ONCE, Doses [Promoter]: 0, 8 UMOL 2/WK FOR 50 WK BEGINNING 10 D POST CARCINOGEN DOSE (STUDY DURATION: 52 WK), Route [Carcinogen]: DERMAL, Route [Promoter]: DERMAL, Species: MOUSE, Strain/Sex: SENCAR/FEMALE): skin: papilloma or carcinoma
- outcome (Carcinogen: 7,12-DIMETHYLBENZ[A]ANTHRACENE, 57-97-6, Doses [Carcinogen]: 20 NMOL IN 200 µL ACETONE ONCE, Doses [Promoter]: 0, 20 UMOL 2/WK FOR 50 WK BEGINNING 10 D POST CARCINOGEN DOSE (STUDY DURATION: 52 WK), Route [Carcinogen]: DERMAL, Route [Promoter]: DERMAL, Species: MOUSE, Strain/Sex: SENCAR/FEMALE): skin: papilloma or carcinoma

SMILES: CNc1ccccc1C(=O)O[C@@H]1[C@@H](C)[C@@]2(O)[C@@H](C=C(CO)C[C@]3(O)C(=O)C(C)=C[C@@H]23)[C@@H]2C(C)(C)[C@]12OC(C)=O
- outcome (Carcinogen: 7,12-DIMETHYLBENZ[A]ANTHRACENE, 57-97-6, Doses [Carcinogen]: 10 NMOL ONCE, Doses [Promoter]: 0, 3.3 NMOL 2/WK FOR 20 WK (STUDY DURATION: 20 WK), Route [Carcinogen]: DERMAL, Route [Promoter]: DERMAL, Species: MOUSE, Strain/Sex: SENCAR): skin: papilloma

SMILES: CC1=CC[C@H]2C[C@@H]1C2(C)C
- outcome (Carcinogen: 7,12-DIMETHYLBENZ(A)ANTHRACENE, Doses [Carcinogen]: TOP, Route [Carcinogen]: DERMAL, Route [Promoter]: DERMAL, Species: MOUSE): integumentary system (skin)

SMILES: CCCCCC1(CCCCCC(=O)OC2C(C)C3(O)C(C=C(CO)CC4(O)C(=O)C(C)=CC43)C3C(C)(C)C23OC(C)=O)OCC(C)(C)N1[O] (stereo not given)
- outcome (Carcinogen: 7,12-DIMETHYLBENZ[A]ANTHRACENE, 57-97-6, Doses [Carcinogen]: 100 NMOL ONCE, Doses [Promoter]: 0, 20 NMOL 2/WK FOR 24 WK BEGINNING 1 WK POST CARCINOGEN DOSE (STUDY DURATION: 25 WK), Route [Carcinogen]: DERMAL, Route [Promoter]: DERMAL, Species: MOUSE, Strain/Sex: NMRI/FEMALE): skin: tumor

SMILES: Cc1ccc(C)c(O)c1
- outcome [1]: integumentary system (skin)

SMILES: C=C(C)[C@H]1CC=C(C)CC1
- outcome [2]: integumentary system (skin)
- outcome (Carcinogen: N-ETHYL-N-HYDROXYETHYLNITROSAMINE, 13147-25-6, Doses [Carcinogen]: 500 PPM IN DRINKING WATER FOR 2 WK, Doses [Promoter]: 0, 150 MG/KG/D IN CORN OIL 5 D/WK FOR 30 WK BEGINNING POST CARCINOGEN TREATMENT (STUDY DURATION: 32 WK), Route [Carcinogen]: ORAL, Route [Promoter]: GAVAGE, Species: RAT, Strain/Sex: F344/MALE): kidney: adenoma
- outcome (Carcinogen: URETHANE, Doses [Carcinogen]: TOP, Route [Carcinogen]: DERMAL, Route [Promoter]: DERMAL, Species: MOUSE, Strain/Sex: MALE,FEMALE): integumentary system (skin)

SMILES: [Cl][Cd][Cl]
- outcome (Carcinogen: 3,2'-DIMETHYL-4-AMINOBIPHENYL, 13394-86-0, Doses [Carcinogen]: 50 MG/KG BW IN 0.5 ML CORN OIL 1/2 WK FOR 20 WK, Doses [Promoter]: 0, 10 UMOL/KG BW IN SALINE ONCE AT WK 20 (STUDY DURATION: 60 WK), Route [Carcinogen]: SUBCUTANEOUS, Route [Promoter]: INTRAMUSCULAR, Species: RAT, Strain/Sex: F344/MALE): ventral prostate: carcinoma
- outcome (Carcinogen: 3,2'-DIMETHYL-4-AMINOBIPHENYL, 13394-86-0, Doses [Carcinogen]: 50 MG/KG BW IN 0.5 ML CORN OIL 1/2 WK FOR 20 WK, Doses [Promoter]: 0, 10 UMOL/KG BW IN SALINE ONCE AT WK 20 AND 0, 5 UMOL/KG BW ONCE AT WK 40 (STUDY DURATION: 60 WK), Doses [Promoter]: 0, 10 UMOL/KG BW IN SALINE ONCE AT WK 20 AND 0, 5 UMOL/KG BW ONCE AT WK 40 (STUDY DURATION: 60 WK), Route [Carcinogen]: SUBCUTANEOUS, Route [Promoter]: INTRAMUSCULAR, Species: RAT, Strain/Sex: F344/MALE): ventral prostate: carcinoma

SMILES: C[C@]12CC[C@@H]3c4ccc(O)cc4CC[C@H]3[C@@H]1CCC2=O
- outcome (Carcinogen: N-METHYL-N-NITROSOUREA, 684-93-5, Doses [Carcinogen]: 1 MG/100 G BW INJECTED INTO LEFT UTERINE TUBE ONCE, Doses [Promoter]: 0, 25 PPM IN DIET BEGINNING 1 WK POST CARCINOGEN TREATMENT (STUDY DURATION: 30 WK), Route [Carcinogen]: INJECTION, Route [Promoter]: ORAL, Species: MOUSE, Strain/Sex: ICR/FEMALE): uterus (left): adenocarcinoma
